# From ChEMBL document CHEMBL1201861, “Genomics of Drug Sensitity in Cancer screening data, Wellcome Trust Sanger Institute”
# Experiments:
# NCI-H1436 = assay: cells; type: functional, cell-based; settings: Homo sapiens;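 further: growth suppression of human NCI-H1436 cells, determined with a cell viability readout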
# Description: SANGER: Inhibition of human NCI-H1436 cell growth in a cell viability assay.
# EVSA-T = assay: cells; type: functional, cell-based, Homo sapiens; settings: Homo sapiens, EVSA-T;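 further: growth inhibition of EVSA-T cells, read out with a cell viability assay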
# Description: SANGER: Inhibition of human EVSA-T cell growth in a cell viability assay.
# SNU-C1 = assay: cells; type: functional, cell-based; settings: Homo sapiens;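 further: growth inhibition of SNU-C1 human cells, read out by a cell viability assay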
# Description: SANGER: Inhibition of human SNU-C1 cell growth in a cell viability assay.
# YT = assay: cells; type: functional, cell-based; settings: Homo sapiens
# Description: SANGER: Inhibition of human YT cell growth in a cell viability assay.
# BL-41 = assay: cells; type: functional, cell-based; settings: Homo sapiens;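 further: growth inhibition of human BL-41 cells, read out with a cell viability assay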
# Description: SANGER: Inhibition of human BL-41 cell growth in a cell viability assay.
# EW-22 = assay: cells; type: functional, cell-based; settings: Homo sapiens;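 further: growth inhibition of the EW-22 cell line, measured with a cell viability readout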
# Description: SANGER: Inhibition of human EW-22 cell growth in a cell viability assay.
# CAL-148 = assay: cells; type: functional, cell-based; settings: Homo sapiens
# Description: SANGER: Inhibition of human CAL-148 cell growth in a cell viability assay.
# SNU-16 = assay: cells; type: functional, cell-based; settings: Homo sapiens;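 further: growth inhibition of human SNU-16 cells, determined with a cell viability readout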
# Description: SANGER: Inhibition of human NCI-SNU-16 cell growth in a cell viability assay.
# IM-9 = assay: SANGER: Inhibition of human IM-9 cell growth in a cell viability assay.; type: functional, cell-based
# BC-3 = assay: cells; type: functional, cell-based; settings: Homo sapiens;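 further: cell viability assay measuring growth inhibition of human BC-3 cells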
# Description: SANGER: Inhibition of human BC-3 cell growth in a cell viability assay.
# CMK = assay: cells; type: functional, cell-based; settings: Homo sapiens;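 further: growth inhibition of CMK cells, read out as cell viability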
# Description: SANGER: Inhibition of human CMK cell growth in a cell viability assay.
# MDA-MB-134-VI = assay: cells; type: functional, cell-based; settings: Homo sapiens
# Description: SANGER: Inhibition of human MDA-MB-134-VI cell growth in a cell viability assay.
# NCI-H2141 = assay: cells; type: functional, cell-based; settings: Homo sapiens;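 further: growth inhibition of human NCI-H2141 cells, read out with a cell viability assay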
# Description: SANGER: Inhibition of human NCI-H2141 cell growth in a cell viability assay.
# IST-SL2 = assay: cells; type: functional, cell-based; settings: Homo sapiens;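 further: growth inhibition of human IST-SL2 cells, read out by a cell viability assay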
# Description: SANGER: Inhibition of human IST-SL2 cell growth in a cell viability assay.
# HCC1599 = assay: cells; type: functional, cell-based; settings: Homo sapiens;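 further: growth inhibition of HCC1599 cells, read out in a cell viability assay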
# Description: SANGER: Inhibition of human HCC1599 cell growth in a cell viability assay.
# LOUCY = assay: cells; type: functional, cell-based; settings: Homo sapiens;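 further: growth inhibition of human LOUCY cells, read out with a cell viability assay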
# Description: SANGER: Inhibition of human LOUCY cell growth in a cell viability assay.
# EB-3 = assay: cells; type: functional, cell-based; settings: Homo sapiens;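 further: human EB-3 cells, growth inhibition read out via a cell viability assay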
# Description: SANGER: Inhibition of human EB-3 cell growth in a cell viability assay.
# NCI-H889 = assay: cells; type: functional, cell-based; settings: Homo sapiens;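 further: cell growth inhibition of the cell line, read out with a viability assay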
# Description: SANGER: Inhibition of human NCI-H889 cell growth in a cell viability assay.
# NCI-H64 = assay: cells; type: functional, cell-based; settings: Homo sapiens;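 further: growth inhibition of NCI-H64 cells, read out with a cell viability assay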
# Description: SANGER: Inhibition of human NCI-H64 cell growth in a cell viability assay.
# Raji = assay: cells; type: functional, cell-based; settings: Homo sapiens;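 further: cell viability assay measuring inhibition of Raji cell growth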
# Description: SANGER: Inhibition of human Raji cell growth in a cell viability assay.
# LU-165 = assay: cells; type: functional, cell-based; settings: Homo sapiens
# Description: SANGER: Inhibition of human LU-165 cell growth in a cell viability assay.
# Kasumi 1 = assay: cells; type: functional, cell-based; settings: Homo sapiens;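 further: growth inhibition of human Kasumi-1 cells, read out by a cell viability assay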
# Description: SANGER: Inhibition of human KASUMI-1 cell growth in a cell viability assay.
# CESS = assay: SANGER: Inhibition of human CESS cell growth in a cell viability assay.; type: functional, cell-based
# MRK-nu-1 = assay: cells; type: functional, cell-based; settings: Homo sapiens;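 further: cell viability assay measuring growth suppression of human MRK-nu-1 cells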
# Description: SANGER: Inhibition of human MRK-nu-1 cell growth in a cell viability assay.
# CA46 = assay: cells; type: functional, cell-based; settings: Homo sapiens;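 further: growth inhibition of human CA46 cells, read out by a cell viability assay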
# Description: SANGER: Inhibition of human CA46 cell growth in a cell viability assay.
# WSU-NHL = assay: cells; type: functional, cell-based; settings: Homo sapiens;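 further: growth inhibition of human WSU-NHL cells, read out with a cell viability assay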
# Description: SANGER: Inhibition of human WSU-NHL cell growth in a cell viability assay.
# ST486 = assay: SANGER: Inhibition of human ST486 cell growth in a cell viability assay.; type: functional, cell-based
# SK-MM-2 = assay: cells; type: functional, cell-based; settings: Homo sapiens;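 further: growth inhibition of human SK-MM-2 cells, read out with a cell viability assay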
# Description: SANGER: Inhibition of human SK-MM-2 cell growth in a cell viability assay.
# NCI-H1522 = assay: cells; type: functional, cell-based; settings: Homo sapiens;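 further: growth inhibition of NCI-H1522 cells, read out with a cell viability assay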
# Description: SANGER: Inhibition of human NCI-H1522 cell growth in a cell viability assay.
# KARPAS-422 = assay: cells; type: functional, cell-based; settings: Homo sapiens
# Description: SANGER: Inhibition of human KARPAS-422 cell growth in a cell viability assay.
# KMS-12-PE = assay: cells; type: functional, cell-based; settings: Homo sapiens;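 further: growth inhibition of human KMS-12-PE cells, measured with a cell viability assay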
# Description: SANGER: Inhibition of human KMS-12-PE cell growth in a cell viability assay.
# BL-70 = assay: SANGER: Inhibition of human BL-70 cell growth in a cell viability assay.; type: functional, cell-based
# K052 = assay: cells; type: functional, cell-based; settings: Homo sapiens;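 further: Read-out from a cell viability assay, IC50 reflecting suppression of K052 cell growth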
# Description: SANGER: Inhibition of human K052 cell growth in a cell viability assay.
# MC-CAR = assay: cells; type: functional, cell-based; settings: Homo sapiens;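 further: growth inhibition of the human MC-CAR cell line, read out by a cell viability assay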
# Description: SANGER: Inhibition of human MC-CAR cell growth in a cell viability assay.
# UACC-812 = assay: cells; type: functional, cell-based; settings: Homo sapiens
# Description: SANGER: Inhibition of human UACC-812 cell growth in a cell viability assay.
# SU-DHL-1 = assay: SANGER: Inhibition of human SU-DHL-1 cell growth in a cell viability assay.; type: functional, cell-based
# COR-L279 = assay: SANGER: Inhibition of human COR-L279 cell growth in a cell viability assay.; type: functional, cell-based
# SUP-T1 = assay: cells; type: functional, cell-based; settings: Homo sapiens;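 further: growth inhibition of human SUP-T1 cells, read out as cell viability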
# Description: SANGER: Inhibition of human SUP-T1 cell growth in a cell viability assay.
# GDM-1 = assay: cells; type: functional, cell-based; settings: Homo sapiens;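 further: cell viability readout used to measure growth inhibition of human GDM-1 cells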
# Description: SANGER: Inhibition of human GDM-1 cell growth in a cell viability assay.
# TE-15 = assay: cells; type: functional, cell-based; settings: Homo sapiens;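 further: cell viability readout of growth inhibition in TE-15 cells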
# Description: SANGER: Inhibition of human TE-15 cell growth in a cell viability assay.
# L-540 = assay: cells; type: functional, cell-based; settings: Homo sapiens;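 further: growth inhibition of the human L-540 cell line, read out with a viability assay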
# Description: SANGER: Inhibition of human L-540 cell growth in a cell viability assay.
# NCI-H524 = assay: cells; type: functional, cell-based; settings: Homo sapiens;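 further: growth inhibition of human NCI-H524 cells, read out through a cell viability assay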
# Description: SANGER: Inhibition of human NCI-H524 cell growth in a cell viability assay.
# NCI-H1882 = assay: cells; type: functional, cell-based; settings: Homo sapiens;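 further: growth inhibition of the cell line, determined with a viability assay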
# Description: SANGER: Inhibition of human NCI-H1882 cell growth in a cell viability assay.
# NCI-H1694 = assay: cells; type: functional, cell-based; settings: Homo sapiens;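 further: cell viability assay measuring inhibition of growth in human NCI-H1694 cells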
# Description: SANGER: Inhibition of human NCI-H1694 cell growth in a cell viability assay.
# JIYOYE = assay: cells; type: functional, cell-based; settings: Homo sapiens
# Description: SANGER: Inhibition of human JiyoyeP-2003 cell growth in a cell viability assay.
# SCLC-21H = assay: cells; type: functional, cell-based; settings: Homo sapiens;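 further: growth inhibition of cultured human SCLC-21H cells, read out with a cell viability assay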
# Description: SANGER: Inhibition of human SCLC-21H cell growth in a cell viability assay.
smiles,measurement,setting,value
CN1CCN(CCOc2cc(OC3CCOCC3)c3c(Nc4c(Cl)ccc5c4OCO5)ncnc3c2)CC1 [SARACATINIB],IC50,NCI-H1436,0.79 µM
same,IC50,EVSA-T,> 2 µM
same,IC50,SNU-C1,> 2 µM
same,IC50,YT,> 2 µM
same,IC50,BL-41,> 2 µM
same,IC50,EW-22,> 2 µM
same,IC50,CAL-148,> 2 µM
same,IC50,SNU-16,> 2 µM
same,IC50,IM-9,> 2 µM
same,IC50,BC-3,> 2 µM
same,IC50,CMK,> 2 µM
same,IC50,MDA-MB-134-VI,> 2 µM
same,IC50,NCI-H2141,> 2 µM
same,IC50,IST-SL2,> 2 µM
same,IC50,HCC1599,> 2 µM
same,IC50,LOUCY,> 2 µM
same,IC50,EB-3,> 2 µM
same,IC50,NCI-H889,> 2 µM
same,IC50,NCI-H64,> 2 µM
same,IC50,Raji,> 2 µM
same,IC50,LU-165,> 2 µM
same,IC50,Kasumi 1,> 2 µM
same,IC50,CESS,> 2 µM
same,IC50,MRK-nu-1,> 2 µM
same,IC50,CA46,> 2 µM
same,IC50,WSU-NHL,> 2 µM
same,IC50,ST486,1.46 µM
same,IC50,SK-MM-2,> 2 µM
same,IC50,NCI-H1522,> 2 µM
same,IC50,KARPAS-422,> 2 µM
same,IC50,KMS-12-PE,> 2 µM
same,IC50,BL-70,> 2 µM
same,IC50,K052,> 2 µM
same,IC50,MC-CAR,> 2 µM
same,IC50,UACC-812,> 2 µM
same,IC50,SU-DHL-1,> 2 µM
same,IC50,COR-L279,> 2 µM
same,IC50,SUP-T1,> 2 µM
same,IC50,GDM-1,> 2 µM
same,IC50,TE-15,0.274 µM
same,IC50,L-540,> 2 µM
same,IC50,NCI-H524,> 2 µM
same,IC50,NCI-H1882,> 2 µM
same,IC50,NCI-H1694,> 2 µM
same,IC50,JIYOYE,> 2 µM
same,IC50,SCLC-21H,> 2 µM
CCc1nc(N)nc(N)c1-c1ccc(Cl)cc1 [PYRIMETHAMINE],IC50,NCI-H1436,> 20 µM
same,IC50,EVSA-T,> 20 µM
same,IC50,SNU-C1,> 20 µM
same,IC50,YT,> 20 µM
same,IC50,BL-41,> 20 µM
same,IC50,EW-22,> 20 µM
same,IC50,CAL-148,> 20 µM
same,IC50,SNU-16,> 20 µM
same,IC50,IM-9,> 20 µM
same,IC50,BC-3,19.5 µM
same,IC50,CMK,2.46 µM
same,IC50,MDA-MB-134-VI,> 20 µM
same,IC50,NCI-H2141,> 20 µM
same,IC50,IST-SL2,11.4 µM
same,IC50,HCC1599,> 20 µM
same,IC50,LOUCY,10.9 µM
same,IC50,EB-3,> 20 µM
same,IC50,NCI-H889,> 20 µM
same,IC50,NCI-H64,> 20 µM
same,IC50,Raji,> 20 µM
same,IC50,LU-165,> 20 µM
same,IC50,Kasumi 1,> 20 µM
same,IC50,CESS,5.71 µM
same,IC50,MRK-nu-1,> 20 µM
same,IC50,CA46,> 20 µM
same,IC50,WSU-NHL,> 20 µM
same,IC50,ST486,9.31 µM
same,IC50,SK-MM-2,> 20 µM
same,IC50,NCI-H1522,> 20 µM
same,IC50,KARPAS-422,18.2 µM
same,IC50,KMS-12-PE,> 20 µM
same,IC50,BL-70,14.6 µM
same,IC50,K052,> 20 µM
same,IC50,MC-CAR,> 20 µM
same,IC50,UACC-812,> 20 µM
same,IC50,SU-DHL-1,10.8 µM
same,IC50,COR-L279,6.37 µM
same,IC50,SUP-T1,> 20 µM
same,IC50,GDM-1,> 20 µM
same,IC50,TE-15,> 20 µM
same,IC50,L-540,10.5 µM
same,IC50,NCI-H524,> 20 µM
same,IC50,NCI-H1882,> 20 µM
same,IC50,NCI-H1694,> 20 µM
same,IC50,JIYOYE,10.9 µM
same,IC50,SCLC-21H,> 20 µM
CNC(=O)c1cc(Oc2ccc(NC(=O)Nc3ccc(Cl)c(C(F)(F)F)c3)cc2)ccn1 [SORAFENIB],IC50,NCI-H1436,1.22 µM
same,IC50,EVSA-T,> 4 µM
same,IC50,SNU-C1,> 4 µM
same,IC50,YT,> 4 µM
same,IC50,BL-41,> 4 µM
same,IC50,EW-22,> 4 µM
same,IC50,CAL-148,> 4 µM
same,IC50,SNU-16,> 4 µM
same,IC50,IM-9,> 4 µM
same,IC50,BC-3,> 4 µM
same,IC50,CMK,> 4 µM
same,IC50,MDA-MB-134-VI,> 4 µM
same,IC50,NCI-H2141,> 4 µM
same,IC50,IST-SL2,> 4 µM
same,IC50,HCC1599,> 4 µM
same,IC50,LOUCY,> 4 µM
same,IC50,EB-3,> 4 µM
same,IC50,NCI-H889,> 4 µM
same,IC50,NCI-H64,> 4 µM
same,IC50,Raji,> 4 µM
same,IC50,LU-165,> 4 µM
same,IC50,Kasumi 1,> 4 µM
same,IC50,CESS,> 4 µM
same,IC50,MRK-nu-1,3.61 µM
same,IC50,CA46,> 4 µM
same,IC50,WSU-NHL,> 4 µM
same,IC50,ST486,3.84 µM
same,IC50,SK-MM-2,> 4 µM
same,IC50,NCI-H1522,> 4 µM
same,IC50,KARPAS-422,> 4 µM
same,IC50,KMS-12-PE,> 4 µM
same,IC50,BL-70,> 4 µM
same,IC50,K052,2.75 µM
same,IC50,MC-CAR,> 4 µM
same,IC50,UACC-812,> 4 µM
same,IC50,SU-DHL-1,> 4 µM
same,IC50,COR-L279,> 4 µM
same,IC50,SUP-T1,> 4 µM
same,IC50,GDM-1,0.907 µM
same,IC50,TE-15,> 4 µM
same,IC50,L-540,2.76 µM
same,IC50,NCI-H524,> 4 µM
same,IC50,NCI-H1882,> 4 µM
same,IC50,NCI-H1694,> 4 µM
same,IC50,JIYOYE,> 4 µM
same,IC50,SCLC-21H,> 4 µM
O=C(/C=C/c1ccccc1)NC(NC(=S)Nc1cccc2cccnc12)C(Cl)(Cl)Cl (stereo not drawn) [SALUBRINAL],IC50,NCI-H1436,> 16 µM
same,IC50,EVSA-T,12.9 µM
same,IC50,SNU-C1,> 16 µM
same,IC50,YT,> 16 µM
same,IC50,BL-41,9.78 µM
same,IC50,CAL-148,> 16 µM
same,IC50,SNU-16,> 16 µM
same,IC50,IM-9,> 16 µM
same,IC50,BC-3,14.8 µM
same,IC50,CMK,13.7 µM
same,IC50,MDA-MB-134-VI,> 16 µM
same,IC50,NCI-H2141,> 16 µM
same,IC50,IST-SL2,11.8 µM
same,IC50,HCC1599,12.1 µM
same,IC50,LOUCY,> 16 µM
same,IC50,EB-3,9.63 µM
same,IC50,NCI-H889,> 16 µM
same,IC50,NCI-H64,> 16 µM
same,IC50,Raji,> 16 µM
same,IC50,LU-165,> 16 µM
same,IC50,Kasumi 1,> 16 µM
same,IC50,CESS,11.7 µM
same,IC50,MRK-nu-1,7.75 µM
same,IC50,CA46,> 16 µM
same,IC50,WSU-NHL,> 16 µM
same,IC50,ST486,8.54 µM
same,IC50,SK-MM-2,> 16 µM
same,IC50,NCI-H1522,> 16 µM
same,IC50,KARPAS-422,> 16 µM
same,IC50,KMS-12-PE,> 16 µM
same,IC50,BL-70,> 16 µM
same,IC50,K052,> 16 µM
same,IC50,MC-CAR,> 16 µM
same,IC50,UACC-812,> 16 µM
same,IC50,SU-DHL-1,> 16 µM
same,IC50,COR-L279,> 16 µM
same,IC50,SUP-T1,> 16 µM
same,IC50,GDM-1,> 16 µM
same,IC50,TE-15,> 16 µM
same,IC50,L-540,16 µM
same,IC50,NCI-H524,> 16 µM
same,IC50,NCI-H1882,> 16 µM
same,IC50,NCI-H1694,> 16 µM
same,IC50,JIYOYE,> 16 µM
same,IC50,SCLC-21H,> 16 µM
